Data reported in the supplement of paper PMC10883282.
± gives the standard deviation of the averaged measurements.

How the values were obtained:
Experiment in all cases: relative viability vs DMSO control (72 h) (fraction); higher = more viable cells
[1] = tested on: G401
How it was run: (§1)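 Relative viability was measured with ATPLite and expressed as percent growth, averaged across up to triplicate wells. Sarcoma cell lines had been seeded in 384-well plates to reach 80–90% confluence, dosed after 24 h, and incubated 72 h at 37 °C, 5% CO2. All data were rescaled on a scale where 1 is full and 0 is none.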

[2] = tested on: A204
How it was run: as §1

[3] = tested on: SW1353
How it was run: as §1

[4] = tested on: SK-ES-1
How it was run: as §1

[5] = tested on: HT1080
How it was run: as §1

[6] = tested on: SW684
How it was run: as §1

[7] = tested on: SW982
How it was run: as §1

[8] = tested on: SW872
How it was run: as §1

[9] = tested on: RD-ES
How it was run: as §1

[10] = tested on: KHOS-240S
How it was run: as §1

[11] = tested on: KHOS-NP
How it was run: as §1

[12] = tested on: SYO-1
How it was run: as §1

COc1cc(OC)c(/C=C/S(=O)(=O)Cc2ccc(OC)c(NCC(=O)O)c2)c(OC)c1 [Rigosertib]
Settings	relative viability
[1], 0.00017 µM	1.01 ± 0.025
[1], 0.00051 µM	1 ± 0.015
[1], 0.00152 µM	0.993 ± 0.051
[1], 0.00457 µM	1.02 ± 0.066
[1], 0.01372 µM	1.04 ± 0.016
[1], 0.04115 µM	1.01 ± 0.036
[1], 0.1235 µM	0.983 ± 0.068
[1], 0.3704 µM	0.919 ± 0.017
[1], 1.111 µM	0.534 ± 0.051
[1], 3.333 µM	0.424 ± 0.02
[1], 10 µM	0.361 ± 0.025
[2], 0.00017 µM	1.08 ± 0.039
[2], 0.00051 µM	1.06 ± 0.043
[2], 0.00152 µM	1.08 ± 0.032
[2], 0.00457 µM	1.0898 ± 0.001
[2], 0.01372 µM	1.09 ± 0.054
[2], 0.04115 µM	1.07 ± 0.025
[2], 0.1235 µM	1.01 ± 0.035
[2], 0.3704 µM	0.672 ± 0.06
[2], 1.111 µM	0.398 ± 0.0089
[2], 3.333 µM	0.319 ± 0.0033
[2], 10 µM	0.248 ± 0.01
[3], 0.00017 µM	1 ± 0.0044
[3], 0.00051 µM	1.01 ± 0.014
[3], 0.00152 µM	0.994 ± 0.035
[3], 0.00457 µM	0.989 ± 0.022
[3], 0.01372 µM	0.992 ± 0.03
[3], 0.04115 µM	0.968 ± 0.026
[3], 0.1235 µM	0.932 ± 0.074
[3], 0.3704 µM	0.702 ± 0.013
[3], 1.111 µM	0.426 ± 0.0069
[3], 3.333 µM	0.428 ± 0.015
[3], 10 µM	0.429 ± 0.031
[4], 0.00017 µM	1 ± 0.054
[4], 0.00051 µM	1.02 ± 0.011
[4], 0.00152 µM	0.98 ± 0.058
[4], 0.00457 µM	1.08 ± 0.015
[4], 0.01372 µM	1.03 ± 0.052
[4], 0.04115 µM	0.987 ± 0.028
[4], 0.1235 µM	0.252 ± 0.027
[4], 0.3704 µM	0.038 ± 0.0022
[4], 1.111 µM	0.0202 ± 0.0012
[4], 3.333 µM	0.0195 ± 0.00057
[4], 10 µM	0.0239 ± 0.0018
[5], 0.00017 µM	1.07 ± 0.043
[5], 0.00051 µM	1.03 ± 0.025
[5], 0.00152 µM	1.07 ± 0.021
[5], 0.00457 µM	1.06 ± 0.023
[5], 0.01372 µM	1.05 ± 0.019
[5], 0.04115 µM	1.08 ± 0.046
[5], 0.1235 µM	1.06 ± 0.032
[5], 0.3704 µM	0.412 ± 0.015
[5], 1.111 µM	0.0983 ± 0.017
[5], 3.333 µM	0.0596 ± 0.0058
[5], 10 µM	0.0541 ± 0.0065
[6], 0.00017 µM	1.14 ± 0.036
[6], 0.00051 µM	1.2 ± 0.032
[6], 0.00152 µM	1.15 ± 0.032
[6], 0.00457 µM	1.19 ± 0.017
[6], 0.01372 µM	1.19 ± 0.059
[6], 0.04115 µM	1.15 ± 0.03
[6], 0.1235 µM	1.02 ± 0.027
[6], 0.3704 µM	0.73 ± 0.026
[6], 1.111 µM	0.681 ± 0.034
[6], 3.333 µM	0.713 ± 0.024
[6], 10 µM	0.756 ± 0.021
[7], 0.00017 µM	1.06 ± 0.017
[7], 0.00051 µM	1.04 ± 0.038
[7], 0.00152 µM	1.05 ± 0.035
[7], 0.00457 µM	1.07 ± 0.036
[7], 0.01372 µM	1.07 ± 0.045
[7], 0.04115 µM	1.06 ± 0.036
[7], 0.1235 µM	0.92 ± 0.026
[7], 0.3704 µM	0.52 ± 0.027
[7], 1.111 µM	0.26 ± 0.018
[7], 3.333 µM	0.256 ± 0.012
[7], 10 µM	0.273 ± 0.014
[8], 0.00017 µM	1.04 ± 0.011
[8], 0.00051 µM	1.05 ± 0.027
[8], 0.00152 µM	1.05 ± 0.038
[8], 0.00457 µM	1.06 ± 0.016
[8], 0.01372 µM	1.045 ± 0.0064
[8], 0.04115 µM	1.06 ± 0.029
[8], 0.1235 µM	1.019 ± 0.00056
[8], 0.3704 µM	0.927 ± 0.024
[8], 1.111 µM	0.515 ± 0.037
[8], 3.333 µM	0.479 ± 0.012
[8], 10 µM	0.477 ± 0.028
[9], 0.00017 µM	0.999 ± 0.027
[9], 0.00051 µM	1 ± 0.02
[9], 0.00152 µM	1 ± 0.011
[9], 0.00457 µM	0.993 ± 0.051
[9], 0.01372 µM	1.01 ± 0.019
[9], 0.04115 µM	1 ± 0.04
[9], 0.1235 µM	0.732 ± 0.028
[9], 0.3704 µM	0.143 ± 0.0095
[9], 1.111 µM	0.0474 ± 0.0014
[9], 3.333 µM	0.031 ± 0.0034
[9], 10 µM	0.027 ± 0.0024
[10], 0.00017 µM	1.06 ± 0.011
[10], 0.00051 µM	1.07 ± 0.013
[10], 0.00152 µM	1.051 ± 0.0029
[10], 0.00457 µM	1.05 ± 0.037
[10], 0.01372 µM	1.03 ± 0.03
[10], 0.04115 µM	0.981 ± 0.049
[10], 0.1235 µM	0.385 ± 0.0043
[10], 0.3704 µM	0.228 ± 0.0065
[10], 1.111 µM	0.168 ± 0.0086
[10], 3.333 µM	0.15 ± 0.0094
[10], 10 µM	0.135 ± 0.016
[11], 0.00017 µM	1.09 ± 0.022
[11], 0.00051 µM	1.09 ± 0.02
[11], 0.00152 µM	1.1 ± 0.017
[11], 0.00457 µM	1.11 ± 0.033
[11], 0.01372 µM	1.1 ± 0.031
[11], 0.04115 µM	1.11 ± 0.025
[11], 0.1235 µM	1.08 ± 0.063
[11], 0.3704 µM	0.704 ± 0.051
[11], 1.111 µM	0.478 ± 0.049
[11], 3.333 µM	0.414 ± 0.018
[11], 10 µM	0.357 ± 0.026
[12], 0.00017 µM	0.957 ± 0.018
[12], 0.00051 µM	0.982 ± 0.057
[12], 0.00152 µM	0.96 ± 0.033
[12], 0.00457 µM	0.961 ± 0.054
[12], 0.01372 µM	0.942 ± 0.04
[12], 0.04115 µM	0.966 ± 0.067
[12], 0.1235 µM	0.941 ± 0.043
[12], 0.3704 µM	0.896 ± 0.056
[12], 1.111 µM	0.3561 ± 0.0018
[12], 3.333 µM	0.287 ± 0.011
[12], 10 µM	0.305 ± 0.0095
